Biological target: T1, human iNOS (Homo sapiens, UniProt P35228)
T1 construct: expressed in transfected cells; host or cells: HEK293
Assay: DAN assay of nitric oxide production (hiNOS)
Assay type: cell-based
Conditions: enzyme expressed in HEK293 cells transiently transfected with human iNOS
Text: The source of nitric oxide synthase (NOS) enzyme can be generated in several ways including induction of endogenous iNOS using cytokines and/or lipopolysaccharide (LPS) in various cell types known in the art. Alternatively, the gene encoding the enzyme can be cloned and the enzyme can be generated in cells via heterologous expression from a transient or stable expression plasmid with suitable features for protein expression as are known in the art. Enzymatic activity (nitric oxide production) is calcium independent for iNOS, while the constitutive NOS isoforms, nNOS and eNOS, become active with the addition of various cofactors added to cellular media or extract as are well known in the art. Enzymes specified in Table 1 were expressed in HEK293 cells transiently transfected with human iNOS.
A major metabolic pathway for nitric oxide is to nitrate and nitrite, which are stable metabolites within tissue culture, tissue, plasma, and urine (S Moncada, A Higgs, N Eng J Med 329, 2002 (1993)).
The level of nitrate or nitrite in the specimen can be quantified by any method known in the art which provides adequate sensitivity and reproducibility. A variety of protocols have also been described for detecting and quantifying nitrite and nitrate levels in biological fluids by ion chromatography (e.g., A Everett et al., J. Chromatogr. 706, 437 (1995); J M Monaghan et al., J. Chromatogr. 770, 143 (1997)), high-performance liquid chromatography (e.g., M Kelm et al., Cardiovasc. Res. 41, 765 (1999)), and capillary electrophoresis (MA Friedberg et al., J. Chromatogr. 781, 491 (1997)). For example, 2,3-diaminonaphthalene reacts with the nitrosonium cation that forms spontaneously from NO to form the fluorescent product 1H-naphthotriazole. Using 2,3-diaminonaphthalene (“DAN”), researchers have developed a rapid, quantitative fluorometric assay that can detect from 10 nM to 10 μM nitrite and is compatible with a multi-well microplate format. […] DAN reacts with nitrite ion and gives fluorescent naphthotriazole (MC Carré et al., Analusis 27, 835-838 (1999)). Table 1 provides the test results of various compounds of the subject invention using the DAN assay.
A specimen can be processed prior to determination of nitrate or nitrite as required by the quantification method, or in order to improve the results, or for the convenience of the investigator. For example, processing can involve centrifuging, filtering, or homogenizing the sample. If the sample is whole blood, the blood can be centrifuged to remove cells and the nitrate or nitrite assay performed on the plasma or serum fraction. If the sample is tissue, the tissue can be dispersed or homogenized by any method known in the art prior to determination of nitrate or nitrite. It may be preferable to remove cells and other debris by centrifugation or another method and to determine the nitrate or nitrite level using only the fluid portion of the sample, or the extracellular fluid fraction of the sample. The sample can also be preserved for later determination, for example by freezing of urine or plasma samples. When appropriate, additives may be introduced into the specimen to preserve or improve its characteristics for use in the nitrate or nitrite assay.
The “level” of nitrate, nitrite, or other NO-related product usually refers to the concentration (in moles per liter, micromoles per liter, or other suitable units) of nitrate or nitrite in the specimen, or in the fluid portion of the specimen. However, other units of measure can also be used to express the level of nitrate or nitrite. For example, an absolute amount (in micrograms, milligrams, nanomoles, moles, or other suitable units) can be used, particularly if the amount refers back to a constant amount (e.g., grams, kilograms, milliliters, liters, or other suitable units) of the specimens under consideration. A number of commercially available kits can be used. […]

T1 sequence (P35228 whole entry): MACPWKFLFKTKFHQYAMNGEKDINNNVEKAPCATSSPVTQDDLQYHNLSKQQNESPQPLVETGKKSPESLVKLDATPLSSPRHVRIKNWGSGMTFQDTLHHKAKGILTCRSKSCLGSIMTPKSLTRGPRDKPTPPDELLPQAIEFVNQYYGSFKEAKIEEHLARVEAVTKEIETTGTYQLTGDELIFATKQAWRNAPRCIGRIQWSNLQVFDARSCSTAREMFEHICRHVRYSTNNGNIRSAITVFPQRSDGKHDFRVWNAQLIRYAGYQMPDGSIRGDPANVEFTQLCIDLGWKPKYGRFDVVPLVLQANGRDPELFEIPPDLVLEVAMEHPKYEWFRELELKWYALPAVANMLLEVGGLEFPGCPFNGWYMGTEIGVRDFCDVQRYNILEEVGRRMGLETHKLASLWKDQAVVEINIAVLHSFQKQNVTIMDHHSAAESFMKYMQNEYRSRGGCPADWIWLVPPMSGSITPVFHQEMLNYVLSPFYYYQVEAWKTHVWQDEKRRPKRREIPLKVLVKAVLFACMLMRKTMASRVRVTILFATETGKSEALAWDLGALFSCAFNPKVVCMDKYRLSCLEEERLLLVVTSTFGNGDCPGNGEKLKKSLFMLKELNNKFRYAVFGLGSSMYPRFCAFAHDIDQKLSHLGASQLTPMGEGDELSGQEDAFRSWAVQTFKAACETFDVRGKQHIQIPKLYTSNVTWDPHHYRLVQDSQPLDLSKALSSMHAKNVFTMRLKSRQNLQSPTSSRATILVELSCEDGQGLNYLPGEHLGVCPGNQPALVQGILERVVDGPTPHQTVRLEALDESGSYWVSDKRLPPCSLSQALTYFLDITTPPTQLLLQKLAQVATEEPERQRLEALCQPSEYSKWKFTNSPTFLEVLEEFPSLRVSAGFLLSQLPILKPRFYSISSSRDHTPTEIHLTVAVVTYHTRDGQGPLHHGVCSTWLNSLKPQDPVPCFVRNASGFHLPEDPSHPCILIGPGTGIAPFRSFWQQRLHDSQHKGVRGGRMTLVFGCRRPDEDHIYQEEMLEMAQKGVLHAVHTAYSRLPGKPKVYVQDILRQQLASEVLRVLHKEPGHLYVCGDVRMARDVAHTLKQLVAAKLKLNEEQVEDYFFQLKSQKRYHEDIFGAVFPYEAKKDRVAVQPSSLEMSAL

| SMILES | EC50 [µM] |
| --- | --- |
| Cc1cccc(C(=O)N(Cc2cc(=O)[nH]c3c(F)cccc23)c2cccc(Cl)c2)c1 [Example 58, N-(3-Chlorophenyl)-N-((8-fluoro-2-oxo-1,2-dihydroquinolin-4-yl)methyl)-3-methylbenzamide] | > 5 |
| Cc1ccc(C(=O)N(Cc2cc(=O)[nH]c3c(F)cccc23)c2cccc(Cl)c2)cc1 [Example 59, N-(3-Chlorophenyl)-N-((8-fluoro-2-oxo-1,2-dihydroquinolin-4-yl)methyl)-4-methylbenzamide] | > 5 |
| COc1ccccc1C(=O)N(Cc1cc(=O)[nH]c2c(F)cccc12)c1cccc(Cl)c1 [Example 60, N-(3-Chlorophenyl)-N-((8-fluoro-2-oxo-1,2-dihydroquinolin-4-yl)methyl)-2-methoxybenzamide] | > 5 |
| COc1cccc(C(=O)N(Cc2cc(=O)[nH]c3c(F)cccc23)c2cccc(Cl)c2)c1 [Example 61, N-(3-Chlorophenyl)-N-((8-fluoro-2-oxo-1,2-dihydroquinolin-4-yl)methyl)-3-methoxybenzamide] | > 5 |
| COc1ccc(C(=O)N(Cc2cc(=O)[nH]c3c(F)cccc23)c2cccc(Cl)c2)cc1 [Example 62, N-(3-Chlorophenyl)-N-((8-fluoro-2-oxo-1,2-dihydroquinolin-4-yl)methyl)-4-methoxybenzamide] | > 5 |
| COC(=O)C(=O)N(Cc1cc(=O)[nH]c2c(F)cccc12)c1cccc(Cl)c1 [Example 63, Methyl 2-((3-chlorophenyl)((8-fluoro-2-oxo-1,2-dihydroquinolin-4-yl)methyl)amino)-2-oxoacetate] | > 5 |
| N#Cc1ccccc1C(=O)N(Cc1cc(=O)[nH]c2c(F)cccc12)c1cccc(Cl)c1 [Example 64, N-(3-Chlorophenyl)-2-cyano-N-((8-fluoro-2-oxo-1,2-dihydroquinolin-4-yl)methyl)benzamide] | > 5 |
| N#Cc1cccc(C(=O)N(Cc2cc(=O)[nH]c3c(F)cccc23)c2cccc(Cl)c2)c1 [Example 65, N-(3-Chlorophenyl)-3-cyano-N-((8-fluoro-2-oxo-1,2-dihydroquinolin-4-yl)methyl)benzamide] | > 5 |
| N#Cc1ccc(C(=O)N(Cc2cc(=O)[nH]c3c(F)cccc23)c2cccc(Cl)c2)cc1 [Example 66, N-(3-Chlorophenyl)-4-cyano-N-((8-fluoro-2-oxo-1,2-dihydroquinolin-4-yl)methyl)benzamide] | > 5 |
| O=C(c1ccccn1)N(Cc1cc(=O)[nH]c2c(F)cccc12)c1cccc(Cl)c1 [Example 67, N-(3-Chlorophenyl)-N-((8-fluoro-2-oxo-1,2-dihydroquinolin-4-yl)methyl)picolinamide] | > 5 |
| O=C(c1cccnc1)N(Cc1cc(=O)[nH]c2c(F)cccc12)c1cccc(Cl)c1 [Example 68, N-(3-Chlorophenyl)-N-((8-fluoro-2-oxo-1,2-dihydroquinolin-4-yl)methyl)nicotinamide] | > 5 |
| O=C(c1ccncc1)N(Cc1cc(=O)[nH]c2c(F)cccc12)c1cccc(Cl)c1 [Example 69, N-(3-Chlorophenyl)-N-((8-fluoro-2-oxo-1,2-dihydroquinolin-4-yl)methyl)isonicotinamide] | > 5 |
| O=C(c1cnccn1)N(Cc1cc(=O)[nH]c2c(F)cccc12)c1cccc(Cl)c1 [Example 70, N-(3-Chlorophenyl)-N-((8-fluoro-2-oxo-1,2-dihydroquinolin-4-yl)methyl)pyrazine-2-carboxamide] | > 5 |
| Cc1ncccc1C(=O)N(Cc1cc(=O)[nH]c2c(F)cccc12)c1cccc(Cl)c1 [Example 71, N-(3-Chlorophenyl)-N-((8-fluoro-2-oxo-1,2-dihydroquinolin-4-yl)methyl)-2-methylnicotinamide] | > 5 |
| Cc1ccncc1C(=O)N(Cc1cc(=O)[nH]c2c(F)cccc12)c1cccc(Cl)c1 [Example 72, N-(3-Chlorophenyl)-N-((8-fluoro-2-oxo-1,2-dihydroquinolin-4-yl)methyl)-4-methylnicotinamide] | > 5 |
| Cc1cccnc1C(=O)N(Cc1cc(=O)[nH]c2c(F)cccc12)c1cccc(Cl)c1 [Example 73, N-(3-Chlorophenyl)-N-((8-fluoro-2-oxo-1,2-dihydroquinolin-4-yl)methyl)-3-methylpicolinamide] | > 5 |
| CN(C)c1ccccc1C(=O)N(Cc1cc(=O)[nH]c2c(F)cccc12)c1cccc(Cl)c1 [Example 74, N-(3-Chlorophenyl)-2-(dimethylamino)-N-((8-fluoro-2-oxo-1,2-dihydroquinolin-4-yl)methyl)benzamide] | > 5 |
| CN(C)c1cccc(C(=O)N(Cc2cc(=O)[nH]c3c(F)cccc23)c2cccc(Cl)c2)c1 [Example 75, N-(3-Chlorophenyl)-3-(dimethylamino)-N-((8-fluoro-2-oxo-1,2-dihydroquinolin-4-yl)methyl)benzamide] | > 5 |
| CN(C)c1ccc(C(=O)N(Cc2cc(=O)[nH]c3c(F)cccc23)c2cccc(Cl)c2)cc1 [Example 76, N-(3-Chlorophenyl)-4-(dimethylamino)-N-((8-fluoro-2-oxo-1,2-dihydroquinolin-4-yl)methyl)benzamide] | > 5 |
| O=c1cc(CN(c2cccc(Cl)c2)c2ccccn2)c2cccc(F)c2[nH]1 [Example 77, 4-(((3-Chlorophenyl)(pyridin-2-yl)amino)methyl)-8-fluoroquinolin-2(1H)-one] | > 5 |
| O=c1cc(CN(c2cccc(Cl)c2)c2nccc3ccccc23)c2cccc(F)c2[nH]1 [Example 78, 4-(((3-Chlorophenyl)(isoquinolin-1-yl)amino)methyl)-8-fluoroquinolin-2(1H)-one] | > 5 |
| Cc1ncsc1-c1nc2ccccc2n1Cc1cc(=O)[nH]c2c(F)cccc12 [Example 79, 8-Fluoro-4-((2-(4-methylthiazol-5-yl)-1H-benzo[d]imidazol-1-yl)methyl)quinolin-2(1H)-one] | > 5 |
| CC(C)C(=O)N(Cc1cc(=O)[nH]c2c(F)cccc12)c1cccc(Cl)c1 [Example 80, N-(3-Chlorophenyl)-N-((8-fluoro-2-oxo-1,2-dihydroquinolin-4-yl)methyl)isobutyramide] | > 5 |
| O=C(C1CC1)N(Cc1cc(=O)[nH]c2c(F)cccc12)c1cccc(Cl)c1 [Example 81, N-(3-Chlorophenyl)-N-((8-fluoro-2-oxo-1,2-dihydroquinolin-4-yl)methyl)cyclopropanecarboxamide] | > 5 |
| O=C(c1cccc2ccccc12)N(Cc1cc(=O)[nH]c2c(F)cccc12)c1cccc(Cl)c1 [Example 82, N-(3-Chlorophenyl)-N-((8-fluoro-2-oxo-1,2-dihydroquinolin-4-yl)methyl)-1-naphthamide] | > 5 |
| O=C(c1ccc2ccccc2c1)N(Cc1cc(=O)[nH]c2c(F)cccc12)c1cccc(Cl)c1 [Example 83, N-(3-Chlorophenyl)-N-((8-fluoro-2-oxo-1,2-dihydroquinolin-4-yl)methyl)-2-naphthamide] | > 5 |
| O=C(c1ccc2ncccc2c1)N(Cc1cc(=O)[nH]c2c(F)cccc12)c1cccc(Cl)c1 [Example 84, N-(3-Chlorophenyl)-N-((8-fluoro-2-oxo-1,2-dihydroquinolin-4-yl)methyl)quinoline-6-carboxamide] | > 5 |
| Cc1ncsc1C(=O)N(Cc1cc(=O)[nH]c2c(F)cccc12)c1ccc(F)c(Cl)c1 [Example 85, N-(3-Chloro-4-fluorophenyl)-N-((8-fluoro-2-oxo-1,2-dihydroquinolin-4-yl)methyl)-4-methylthiazole-5-carboxamide] | ≤ 5 |
| Cc1ncsc1C(=O)N(Cc1cc(=O)[nH]c2c(F)c(F)ccc12)C1CC1 [Example 86, N-Cyclopropyl-N-((7,8-fluoro-2-oxo-1,2-dihydroquinolin-4-yl)methyl)-4-methylthiazole-5-carboxamide] | > 5 |
